# Key:
# Test in all cases: DiscoverX scanMAX binding assay
# [1] = target: T1, TAOK1 (Homo sapiens, UniProt Q7L7X3); settings: 1 μM
# T1 construct: purchased Eurofins
# T1 sequence (Q7L7X3 1-1001): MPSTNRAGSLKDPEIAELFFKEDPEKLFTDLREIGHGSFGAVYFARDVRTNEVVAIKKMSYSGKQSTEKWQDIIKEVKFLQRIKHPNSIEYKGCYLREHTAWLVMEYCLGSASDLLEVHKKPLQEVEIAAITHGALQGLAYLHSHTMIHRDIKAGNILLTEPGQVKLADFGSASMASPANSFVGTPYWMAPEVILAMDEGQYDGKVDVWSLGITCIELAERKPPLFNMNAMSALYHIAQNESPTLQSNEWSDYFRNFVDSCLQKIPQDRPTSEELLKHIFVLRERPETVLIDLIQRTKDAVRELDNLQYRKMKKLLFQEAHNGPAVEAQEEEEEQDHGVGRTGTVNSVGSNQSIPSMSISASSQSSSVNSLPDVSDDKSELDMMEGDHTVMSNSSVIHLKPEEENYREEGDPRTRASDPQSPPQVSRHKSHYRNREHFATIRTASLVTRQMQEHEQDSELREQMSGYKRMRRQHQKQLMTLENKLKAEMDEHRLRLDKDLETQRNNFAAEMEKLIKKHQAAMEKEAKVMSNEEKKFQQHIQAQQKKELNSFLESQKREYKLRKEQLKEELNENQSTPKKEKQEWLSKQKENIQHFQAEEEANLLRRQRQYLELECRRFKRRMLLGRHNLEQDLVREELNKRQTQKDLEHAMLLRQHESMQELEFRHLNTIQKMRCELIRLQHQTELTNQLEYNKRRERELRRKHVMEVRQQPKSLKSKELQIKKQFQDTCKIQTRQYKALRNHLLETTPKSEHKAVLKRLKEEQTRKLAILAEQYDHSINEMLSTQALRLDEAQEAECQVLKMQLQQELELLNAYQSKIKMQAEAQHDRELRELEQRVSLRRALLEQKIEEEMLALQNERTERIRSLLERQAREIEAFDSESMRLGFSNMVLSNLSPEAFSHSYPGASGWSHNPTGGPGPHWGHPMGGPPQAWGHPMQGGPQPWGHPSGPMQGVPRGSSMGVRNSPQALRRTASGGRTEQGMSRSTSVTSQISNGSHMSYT
# Description: (§1) This panel includes 403 wild-type (WT) human kinases but not TTBK1/2. […] Substantial overlap between the MRC and DiscoverX scanMAX kinase panels allows the comparison of results for the same kinases in two different assay formats (enzymatic versus binding, respectively) at the same concentration. Selectivity results are included in two columns within Table 1. […] The rightmost column converts this selectivity score into the number of kinases with a PoC < 10 in the scanMAX panel.
# (§2) The Eurofins DiscoverX Corporation scanMAX assay platform was employed to assess the selectivity of specific analogs at a single concentration (1 µM). As described previously, this assay platform profiles a compound against 403 wild-type human kinases and delivers percent of control (PoC) values. These percent of control values are included in Table 1 and corresponding kinome tree diagrams as well as tables for each analog included in Fig. S1.
# [2] = target: T2, PKNB(M.tuberculosis) (Mycobacterium tuberculosis, UniProt P9WI81); settings: for PKNB(M.tuberculosis) % control at 1000nM: 1 μM
# T2 construct: purchased Eurofins (radiometric) / Eurofins DiscoverX scanMAX / Reaction Biology / SignalChem
# T2 sequence (P9WI81 whole entry): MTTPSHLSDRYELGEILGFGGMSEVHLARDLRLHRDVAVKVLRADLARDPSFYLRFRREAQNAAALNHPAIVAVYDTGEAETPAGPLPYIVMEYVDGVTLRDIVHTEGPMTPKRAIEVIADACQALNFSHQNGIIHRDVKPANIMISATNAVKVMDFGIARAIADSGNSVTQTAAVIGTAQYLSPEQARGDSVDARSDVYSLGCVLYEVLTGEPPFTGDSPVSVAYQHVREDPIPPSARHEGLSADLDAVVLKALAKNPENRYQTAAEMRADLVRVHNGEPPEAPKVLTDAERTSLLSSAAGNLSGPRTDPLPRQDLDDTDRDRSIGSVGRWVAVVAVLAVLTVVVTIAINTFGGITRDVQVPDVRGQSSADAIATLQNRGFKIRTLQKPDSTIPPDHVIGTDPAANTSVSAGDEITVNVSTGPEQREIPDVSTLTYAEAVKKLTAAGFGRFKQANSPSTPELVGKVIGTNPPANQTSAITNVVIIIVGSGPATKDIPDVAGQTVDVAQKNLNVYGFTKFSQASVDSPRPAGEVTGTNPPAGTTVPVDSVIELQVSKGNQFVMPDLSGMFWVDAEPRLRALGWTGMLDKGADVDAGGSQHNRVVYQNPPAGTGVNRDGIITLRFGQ
# Description: as §1, §2
# [3] = target: T3, YSK4 (Homo sapiens, UniProt Q56UN5); settings: 1 μM
# T3 construct: purchased Eurofins (radiometric) / Eurofins DiscoverX scanMAX / Reaction Biology / SignalChem
# T3 sequence (Q56UN5 1-1328): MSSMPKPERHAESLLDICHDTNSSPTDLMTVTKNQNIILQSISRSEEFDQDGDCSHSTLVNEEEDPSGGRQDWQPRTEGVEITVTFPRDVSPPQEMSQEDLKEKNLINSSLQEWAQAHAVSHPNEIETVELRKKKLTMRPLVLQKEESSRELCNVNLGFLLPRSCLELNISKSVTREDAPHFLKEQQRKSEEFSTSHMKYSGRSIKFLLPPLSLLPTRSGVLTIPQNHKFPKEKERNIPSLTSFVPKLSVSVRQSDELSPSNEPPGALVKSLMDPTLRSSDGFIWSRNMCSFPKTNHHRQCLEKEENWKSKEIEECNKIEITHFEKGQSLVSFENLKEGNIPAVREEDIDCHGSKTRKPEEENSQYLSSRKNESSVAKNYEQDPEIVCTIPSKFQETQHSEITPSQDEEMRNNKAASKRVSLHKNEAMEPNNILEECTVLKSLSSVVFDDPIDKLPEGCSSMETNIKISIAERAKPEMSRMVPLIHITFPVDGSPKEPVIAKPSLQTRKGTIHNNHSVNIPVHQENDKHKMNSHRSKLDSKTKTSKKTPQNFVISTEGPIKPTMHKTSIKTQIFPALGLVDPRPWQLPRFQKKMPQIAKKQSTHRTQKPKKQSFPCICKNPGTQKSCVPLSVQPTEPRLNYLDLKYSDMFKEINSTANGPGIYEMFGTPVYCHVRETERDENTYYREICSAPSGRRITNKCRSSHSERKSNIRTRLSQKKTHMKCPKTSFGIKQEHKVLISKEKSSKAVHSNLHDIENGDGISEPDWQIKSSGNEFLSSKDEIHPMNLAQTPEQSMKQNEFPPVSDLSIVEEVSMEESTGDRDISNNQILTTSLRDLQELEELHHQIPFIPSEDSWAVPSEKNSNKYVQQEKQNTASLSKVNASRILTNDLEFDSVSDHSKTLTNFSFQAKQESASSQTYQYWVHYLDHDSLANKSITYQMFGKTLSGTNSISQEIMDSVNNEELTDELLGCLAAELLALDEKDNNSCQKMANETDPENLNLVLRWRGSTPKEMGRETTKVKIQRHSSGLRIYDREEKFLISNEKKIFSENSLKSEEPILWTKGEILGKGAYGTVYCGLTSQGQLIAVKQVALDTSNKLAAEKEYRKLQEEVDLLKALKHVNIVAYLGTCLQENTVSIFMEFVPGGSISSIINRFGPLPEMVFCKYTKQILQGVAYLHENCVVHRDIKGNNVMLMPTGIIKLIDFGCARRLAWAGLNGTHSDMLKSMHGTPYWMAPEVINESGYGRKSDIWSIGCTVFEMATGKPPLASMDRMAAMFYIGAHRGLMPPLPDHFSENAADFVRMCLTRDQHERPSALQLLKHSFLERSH
# Description: as §1, §2
Structure (SMILES),TAOK1 % control at 1000nM / DiscoverX PoC value [1],PKNB(M.tuberculosis) % control at 1000nM [2],YSK4 % control at 1000nM / DiscoverX PoC value [3],"kinase binding, % of control at 1 µM ([2]; read-out: PKNB(M.tuberculosis) % control at 1000nM)"
CC(C)(O)C#Cc1ccc2[nH]cc(-c3ccnc(N)n3)c2c1 [Compound 3],2.1 % control,0.9 % control,0 % control,
CC(C)(O)C#Cc1ccc2[nH]c3c(c2c1)-c1nc(N)ncc1CC3 [Compound 1],1.2 % control,1.7 % control,0 % control,
"CC(C)(O)C#Cc1ccc2[nH]c3c(c2c1)-c1nc(N)ncc1CCC3 [AMG28, reference compound]",3.2 % control,,0 % control,0.1%
